Measurements published in patent US11124513B2, “Avibactam free acid” (Sandoz AG, priority 2016, dated 2021).
Where a name gives a salt, the structure may show the parent alone.

Tests used:
[1] = stated in WO 2011/042560 A1; cited from earlier work
[2] = Stability against temperature stress (dehydration, form conversion); format: physicochemical
[3] = stated in WO 2011/042560 A1 (page 17); cited from earlier work
[4] = Thermogravimetric analysis; format: physicochemical; settings: up to a temperature of about 130° C.; 10 K/min; crystalline Form 1 (FIG. 4)
Procedure: Thermogravimetric analysis (TGA) was performed on a Mettler TGA/DSC 1 instrument. The sample (6.30 mg) was heated in a 100 microL aluminum pan closed with an aluminum lid. The lid was automatically pierced at the beginning of the measurement. The sample was heated from 25 to 200° C. at a rate of 10 K/min. Nitrogen (purge rate 50 mL/min) was used as purge gas.

[5] = Differential scanning calorimetry; format: physicochemical; settings: 10 K/min; crystalline Form 1 (FIG. 3)
Procedure: Differential scanning calorimetry was performed on a Mettler Toledo Polymer DSC R instrument. The sample (1.27 mg) was heated in a 40 microL aluminium pan with pierced aluminium lid from 25 to 160° C. at a rate of 10 K/min. Nitrogen (purge rate 50 mL/min) was used as purge gas.

bacteria = settings: at clinically relevant doses; reported; cited from earlier work
[6] = Stability against moisture / hygroscopicity

Row | Compound | relative humidity above which the form is particularly stable [1] [%] | temperature above which the form dehydrates (to monohydrate form A) ([2]; temperature stress) | tendency to lose water and hydrolyze [3] | behaviour under temperature stress [2] | weight loss, thermogravimetric analysis [4] | temperature up to which no thermal event is seen in the differential scanning calorimetry curve [5] | antibacterial activity of its own (bacteria) | hygroscopicity [6] | stability against moisture ([6]; increased relative humidity levels)
1 | NC(=O)[C@@H]1CC[C@@H]2CN1C(=O)N2OS(=O)(=O)[O-].O.O.[Na+] [form E] | > 70 | above 60 °C | tends to lose water and to hydrolyze | – | – | – | – | – | –
2 | NC(=O)C1CCC2CN1C(=O)N2OS(=O)(=O)[O-].O.[Na+] (stereo not shown) [form A] | – | – | – | dehydrates to the anhydrous form B | – | – | – | – | –
3 | NC(=O)[C@@H]1CC[C@@H]2CN1C(=O)N2OS(=O)(=O)O [avibactam free acid, [(2S,5R)-2-carbamoyl-7-oxo-1,6-diazabicylco[3.2.1]octan-6-yl] hydrogen sulfate] | – | – | – | very stable against temperature stress | about 0.3 weight % | at least 130 °C | no antibacterial activity at clinically relevant doses | low hygroscopicity | very stable against moisture
